# Source: PMC9127750, “Structure-based design of CDC42 effector interaction inhibitors for the treatment of cancer” (Cell reports, 2022)
# Where “and” joins values, the source holds several entries; their conditions need not be identical. Identical values can stand only once.
# Test system: WM3248 melanoma cells, 486 antibodies
# Test: Reverse phase protein arrays (RPPA)
# Format: cell-based, Human
# From the text: Pellets were snap frozen in liquid nitrogen and shipped to MD Anderson Cancer Center core RPPA facility for RPPA analysis (Table S5). Three biological replicates for each sample were generated.
# Nomenclatures on the RPPA heatmaps: name_of_antibody.species_of_antibody.status_of_antibody. V - antibody validated; C - validation of antibody in progress; Q - antibody nonspecific; E – under evaluation; antibodies raised in M - mouse, G - goat, R - rabbit, or T - rat.
# [1] = Norm_20: replicates 1-3 and Average, relative to 0
smiles,measurement,setting,value
"CN(C)c1cccc(Nc2cc(-c3ccccc3)nc(C3CCNCC3)n2)c1 [ARN22089, N1,N1-dimethyl-N3-(6-phenyl-2-(piperidin-4-yl)pyrimidin-4-yl)benzene-1,3-diamine]",PEA.15.R.V Average,"Norm_20, normalized to Norm_0",1.052
same,PEA.15_pS116.R.V Average,"Norm_20, normalized to Norm_0",0.946
same,PERK.R.V Average,"Norm_20, normalized to Norm_0",1.025
same,PGM1.R.V Average,"Norm_20, normalized to Norm_0",0.977
same,PHGDH.R.C Average,"Norm_20, normalized to Norm_0",1.014
same,PHLPP.R.V Average,"Norm_20, normalized to Norm_0",1.227
same,PI3K.p85.R.C Average,"Norm_20, normalized to Norm_0",0.845
same,PI3K.p110.a.R.C Average,"Norm_20, normalized to Norm_0",0.888
same,PI3K.p110.b.M.C Average,"Norm_20, normalized to Norm_0",0.953
same,PKA.a.R.V Average,"Norm_20, normalized to Norm_0",0.999
same,PKC.a.b.II_pT638_T641.R.V Average,"Norm_20, normalized to Norm_0",0.901
same,PKC.b.II_pS660.R.V Average,"Norm_20, normalized to Norm_0",1.030
same,PKCa.R.V Average,"Norm_20, normalized to Norm_0",1.322
same,PKM2.R.C Average,"Norm_20, normalized to Norm_0",1.001
same,PLK1.R.C Average,"Norm_20, normalized to Norm_0",0.902
same,PMS2.R.V Average,"Norm_20, normalized to Norm_0",0.963
same,PR.R.V Average,"Norm_20, normalized to Norm_0",0.888
same,PRAS40.M.C Average,"Norm_20, normalized to Norm_0",1.217
same,PRAS40_pT246.R.V Average,"Norm_20, normalized to Norm_0",1.170
same,PRC1_pT481.R.C Average,"Norm_20, normalized to Norm_0",1.054
same,Patched.R.C Average,"Norm_20, normalized to Norm_0",1.056
same,Paxillin.R.C Average,"Norm_20, normalized to Norm_0",0.857
same,Pdcd4.R.C Average,"Norm_20, normalized to Norm_0",0.984
same,Porin.M.V Average,"Norm_20, normalized to Norm_0",1.080
same,p21.R.C Average,"Norm_20, normalized to Norm_0",0.757
same,p27.Kip1.R.C Average,"Norm_20, normalized to Norm_0",1.199
same,p27_pT157.R.C Average,"Norm_20, normalized to Norm_0",1.392
same,p27_pT198.R.V Average,"Norm_20, normalized to Norm_0",1.105
same,p38.MAPK.R.V Average,"Norm_20, normalized to Norm_0",0.992
same,p38.MAPK._pT180_Y182.R.V Average,"Norm_20, normalized to Norm_0",0.965
same,p38.a.M.V Average,"Norm_20, normalized to Norm_0",0.909
same,p44.42.MAPK.R.V Average,"Norm_20, normalized to Norm_0",1.224
same,p53.R.C Average,"Norm_20, normalized to Norm_0",1.197
same,p70.S6K1.R.V Average,"Norm_20, normalized to Norm_0",1.144
same,p70.S6K_pT389.R.V Average,"Norm_20, normalized to Norm_0",0.981
same,p90RSK_pT573.R.C Average,"Norm_20, normalized to Norm_0",0.937
same,PREX1.R.V normalized RPPA signal,[1],1.049 and 0.907 and 1.063 and 1.006
same,PTEN.R.V normalized RPPA signal,[1],1.227 and 1.032 and 1.101
same,PTPN12.R.V normalized RPPA signal,[1],0.953 and 1.002 and 1.471 and 1.142
same,PYGB.R.V normalized RPPA signal,[1],1.322 and 1.252 and 1.214
same,PYGM.M.C normalized RPPA signal,[1],0.919 and 1.127 and 1.743 and 1.263
same,Puma.R.C normalized RPPA signal,[1],1.011 and 1.199
same,Pyk2_pY402.R.C normalized RPPA signal,[1],1.106 and 1.030 and 0.994
same,RBM15.R.V normalized RPPA signal,[1],1.053 (2×) and 1.142 and 1.083
same,RIP3.R.C normalized RPPA signal,[1],1.022 and 0.957 and 0.979 and 0.986
same,RIP.R.C normalized RPPA signal,[1],0.835 and 1.185 and 1.165 and 1.062
same,RPA32.R.V normalized RPPA signal,[1],1.395 and 1.278 and 1.255
same,RPA32_pS4_S8.R.C normalized RPPA signal,[1],2.064 and 2.369 and 1.687 and 2.040
same,RRM1.R.C normalized RPPA signal,[1],0.973 and 0.832 and 0.977 and 0.927
same,RRM2.R.C normalized RPPA signal,[1],0.797 and 0.718 and 1.114 and 0.876
same,RSK1.R.V normalized RPPA signal,[1],1.025 and 1.192 and 1.102
same,RSK.R.C normalized RPPA signal,[1],0.897 and 1.161
same,Rab11.R.C normalized RPPA signal,[1],0.945 and 1.018
same,Rab25.R.V normalized RPPA signal,[1],1.022 and 0.964 and 0.955 and 0.980
same,Rad17_pS645.R.V normalized RPPA signal,[1],0.978 and 0.844 and 0.971
same,Rad23A.R.C normalized RPPA signal,[1],0.902 and 0.794 and 1.765 and 1.154
same,Rad50.R.V normalized RPPA signal,[1],1.096 and 1.085 and 1.310 and 1.164
same,Rad51.R.C normalized RPPA signal,[1],0.693 and 0.792 and 0.842 and 0.776
same,Raptor.R.V normalized RPPA signal,[1],0.796 and 0.917 and 1.035 and 0.916
same,Rb.M.Q normalized RPPA signal,[1],0.868 and 1.016 and 1.009 and 0.964
same,Rb_pS807_S811.R.V normalized RPPA signal,[1],0.751 and 0.680 and 0.842
same,Rheb.M.C normalized RPPA signal,[1],1.435 and 1.017 and 1.212
same,Rictor.R.C normalized RPPA signal,[1],0.973 and 1.010 and 1.009
same,Rictor_pT1135.R.V normalized RPPA signal,[1],0.917 and 1.033 and 0.998
same,S6.M.V normalized RPPA signal,[1],1.331 and 0.833
same,S6_pS235_S236.R.V normalized RPPA signal,[1],0.159 and 0.167 and 0.469 and 0.265
same,S6_pS240_S244.R.V normalized RPPA signal,[1],0.113 and 0.501 and 0.240
same,SCD.M.V normalized RPPA signal,[1],0.924 and 0.950 and 0.971
same,SDHA.R.V normalized RPPA signal,[1],1.123 and 1.101 and 1.057
same,SF2.R.V normalized RPPA signal,[1],1.010 and 0.957
same,SFRP1.R.V normalized RPPA signal,[1],0.979 and 1.009 and 0.863 and 0.950
same,SGK1.R.V normalized RPPA signal,[1],0.759 and 0.622 and 1.145 and 0.842
same,SGK3.R.V normalized RPPA signal,[1],0.855 and 0.956 and 0.913 and 0.908
same,SHP2.R.V normalized RPPA signal,[1],0.966 and 1.028 and 0.923 and 0.972
same,SHP.2_pY542.R.C normalized RPPA signal,[1],1.218 and 1.287 and 1.191
same,SIRPαR.V normalized RPPA signal,[1],1.172 and 0.832 and 0.694 and 0.900
same,SLC1A5.R.C normalized RPPA signal,[1],1.248 and 1.028 and 1.189 and 1.155
same,SOD1.M.V normalized RPPA signal,[1],0.834
same,SOD2.R.V normalized RPPA signal,[1],1.108 and 1.226 and 0.894 and 1.076
same,SOX7.R.V normalized RPPA signal,[1],1.078 and 1.212 and 1.083 and 1.124
same,STING.R.V normalized RPPA signal,[1],0.848 and 1.021
